For 5 compounds, IC90 and MIC results are on record in patent US11098055B2, “Ester ACC inhibitors and uses thereof” (Gilead Apollo, LLC, priority 2015, dated 2021).

One experiment has as its system Rhizoctonia solani (Rs). Briefly: Growth inhibition assay of fungal pathogens. The format is cell-based. To be noted: 48 h, Table 4b, read-out: Concentration at 90% Inhibition Rs. An outline of the steps:
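Percent growth inhibition is scored at 48 h, by OD600 (blank-subtracted) and visual rating against the 2% DMSO control. Compounds were tested at final 50, 10, 2 ppm or 2, 0.4, 0.08 ppm on pathogen spores diluted in 17% V8 medium; mycelial plugs in ¼ PDB were used for Rhizoctonia.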

The test system of experiment [1] is Fusarium moniliforme (Fm). Put plainly: Growth inhibition assay of fungal pathogens. In kind it is cell-based. The settings on record: Fusarium verticillioides, 48 h, Table 4b, read-out: Concentration at 90% Inhibition Fm. An outline of the steps:
(§1)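 Spores from sub-cultured plates were diluted in 17% V8 liquid medium and exposed to compound at final 50, 10 and 2 ppm or 2, 0.4 and 0.08 ppm with 2% DMSO. OD600 and visual ratings were taken at 24 and 48 h, blank-subtracted. Percent growth inhibition came from 48 h readings against the 2% DMSO control.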

Another experiment deals with Botrtyis cinerea (Bc). Briefly: Growth inhibition assay of fungal pathogens. In kind it is cell-based. The settings on record: 48 h, Table 4b, read-out: Concentration at 90% Inhibition Bc. Put shortly: as §1
In another experiment the test system is Diplodia maydis (Dm). Briefly: Growth inhibition assay of fungal pathogens. In kind it is cell-based. The settings on record: Stenocarpella maydis, 48 h, Table 4b, read-out: Concentration at 90% Inhibition Dm. An outline of the steps: as §1
Experiment [2] relates to Phytophthora capsici (Pc). Put plainly: Growth inhibition assay of fungal pathogens. The format is cell-based. To be noted: 48 h, Table 4b, read-out: Concentration at 90% Inhibition Pc. An outline of the steps: as §1
Experiment [3] concerns Fusarium virguliforme (Fv). Put plainly: Growth inhibition assay of fungal pathogens. In kind it is cell-based. To be noted: 48 h, Table 4b, read-out: Concentration at 90% Inhibition Fv. An outline of the steps: as §1
The test system of experiment [4] is Collectotrichum graminicola (Cg). Put plainly: Growth inhibition assay of fungal pathogens. The format is cell-based. The settings on record: 48 h, Table 4b, read-out: Concentration at 90% Inhibition Cg. An outline of the steps: as §1
The test system of the next experiment is Septoria tritici (St). Put plainly: Growth inhibition assay of fungal pathogens. In kind it is cell-based. The settings on record: Zymoseptoria tritici, 48 h, Table 4b, read-out: Concentration at 90% Inhibition St. Put shortly:
as §1

A further experiment has as its system C. krusei ATCC 6258. Briefly: Anti-Fungal (Candida) Activity Assay, broth microtiter MIC. The format is cell-based, Candida krusei. To be noted: Pichia kudriavzevii, ATCC6258, 48 h, Table 3b (additional results); 3 replicates; MIC read at 48 h. Put shortly: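 Broth microdilution per CLSI M27-A3 in RPMI 1640 + MOPS, at a final inoculum of 2.5×10^3 CFU/mL. Compound DMSO stocks were diluted in water to a 128 μg/mL working solution. MIC was read visually against the growth control at 48 h.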

In brackets after ≈: the same amount, converted by molar mass.

With `CCOC(=O)c1sc2c(c1C)c(=O)n(C(C)(C)C(=O)NC(C)C)c(=O)n2CCc1cc(F)ccc1OC` [Compound I-40, ethyl 1-(5-fluoro-2-methoxyphenethyl)-3-(1-(isopropylamino)-2-methyl-1-oxopropan-2-yl)-5-methyl-2,4-dioxo-1,2,3,4-tetrahydrothieno[2,3-d]pyrimidine-6-carboxylate], the IC90 was ≥ 50 µg/mL in the experiment on Rhizoctonia solani (Rs); 2 µg/mL (≈ 3.75 µM) in experiment [1]; 2 µg/mL (≈ 3.75 µM) with Botrtyis cinerea (Bc); 10 µg/mL (≈ 18.7 µM) with Diplodia maydis (Dm); ≥ 50 µg/mL in experiment [2]; 2 µg/mL (≈ 3.75 µM) in experiment [3]. In addition, the IC90 in experiment [4] is 10 µg/mL (≈ 18.7 µM); in the experiment on Septoria tritici (St), ≥ 50 µg/mL. The compound further returned an MIC in the experiment on C. krusei ATCC 6258 of 2.1 to 4 µg/mL (≈ 3.94 to 7.5 µM).
On to `CCNC(=O)[C@@H](C)n1c(=O)c2c(C)c(C(=O)OCC)sc2n(C[C@H](OCCC#N)c2cc(F)ccc2OC)c1=O` [Compound I-41, ethyl 1-((R)-2-(2-cyanoethoxy)-2-(5-fluoro-2-methoxy-phenyl)ethyl)-3-((R)-1-(ethylamino)-1-oxopropan-2-yl)-5-methyl-2,4-dioxo-1,2,3,4-tetrahydrothieno[2,3-d]pyrimidine-6-carboxylate], for which the IC90 in the experiment with Rhizoctonia solani (Rs) is ≥ 50 µg/mL; in [1], 2 µg/mL (≈ 3.48 µM); in the experiment on Botrtyis cinerea (Bc) it was 10 µg/mL (≈ 17.4 µM); in the experiment with Diplodia maydis (Dm), ≥ 50 µg/mL; in experiment [2] it was ≥ 50 µg/mL; in experiment [3], ≥ 50 µg/mL. Also, the figures for the IC90 (in experiment [4]; with Septoria tritici (St)) were 10 µg/mL (≈ 17.4 µM) and ≥ 50 µg/mL, respectively. Moreover, the MIC against C. krusei ATCC 6258 lay in the range of 2.1 to 4 µg/mL (≈ 3.65 to 6.96 µM).
With `CCNC(=O)[C@H](C)n1c(=O)c2c(C)c(C(=O)OCC)sc2n(C[C@H](OCCC#N)c2cc(F)ccc2OC)c1=O` [Compound I-42, ethyl 1-((R)-2-(2-cyanoethoxy)-2-(5-fluoro-2-methoxyphenyl)ethyl)-3-((S)-1-(ethylamino)-1-oxopropan-2-yl)-5-methyl-2,4-dioxo-1,2,3,4-tetrahydrothieno[2,3-d]pyrimidine-6-carboxylate], the IC90 in the experiment on Rhizoctonia solani (Rs) is 2 µg/mL (≈ 3.48 µM); in experiment [1], 0.08 µg/mL (≈ 0.139 µM); with Botrtyis cinerea (Bc), 0.4 µg/mL (≈ 0.696 µM); in the experiment with Diplodia maydis (Dm) it was 2 µg/mL (≈ 3.48 µM); in [2] it was ≥ 50 µg/mL; in experiment [3], 0.4 µg/mL (≈ 0.696 µM). Besides, the IC90 was 2 µg/mL (≈ 3.48 µM) in [4] and ≥ 50 µg/mL in the experiment with Septoria tritici (St). In the experiment with C. krusei ATCC 6258, the MIC was 2.1 to 4 µg/mL (≈ 3.65 to 6.96 µM).
Consider `CCOC(=O)c1sc2c(c1C)c(=O)n([C@H](C)C(=O)NC(C)C)c(=O)n2C[C@H](O)c1cc(F)ccc1OC` [Compound I-43, ethyl 1-((R)-2-(5-fluoro-2-methoxyphenyl)-2-hydroxyethyl)-3-((R)-1-(isopropylamino)-1-oxopropan-2-yl)-5-methyl-2,4-dioxo-1,2,3,4-tetrahydrothieno[2,3-d]pyrimidine-6-carboxylate], for which the IC90 is 2 µg/mL (≈ 3.73 µM) with Rhizoctonia solani (Rs); 0.08 µg/mL (≈ 0.149 µM) in experiment [1]; 2 µg/mL (≈ 3.73 µM) in the experiment with Botrtyis cinerea (Bc); 10 µg/mL (≈ 18.7 µM) in the experiment with Diplodia maydis (Dm); ≥ 50 µg/mL in experiment [2]; 0.4 µg/mL (≈ 0.747 µM) in experiment [3]. Besides, the IC90 was 10 µg/mL (≈ 18.7 µM) in experiment [4] and ≥ 50 µg/mL with Septoria tritici (St). In the experiment on C. krusei ATCC 6258, this compound gave an MIC of 2.1 to 4 µg/mL (≈ 3.92 to 7.47 µM).
Regarding `CCOC(=O)c1sc2c(c1C)c(=O)n([C@@H](C)C(=O)NC(C)C)c(=O)n2C[C@H](O)c1cc(F)ccc1OC` [Compound I-44, ethyl 1-((R)-2-(5-fluoro-2-methoxyphenyl)-2-hydroxyethyl)-3-((S)-1-(isopropylamino)-1-oxopropan-2-yl)-5-methyl-2,4-dioxo-1,2,3,4-tetrahydrothieno[2,3-d]pyrimidine-6-carboxylate], the IC90 is ≥ 50 µg/mL in the experiment with Rhizoctonia solani (Rs); ≥ 50 µg/mL in [1]; 10 µg/mL (≈ 18.7 µM) in the experiment with Botrtyis cinerea (Bc); ≥ 50 µg/mL with Diplodia maydis (Dm); ≥ 50 µg/mL in [2]; 10 µg/mL (≈ 18.7 µM) in experiment [3]. The IC90 (in experiment [4]; with Septoria tritici (St)) was ≥ 50 µg/mL in each case. This compound registered an MIC in the experiment on C. krusei ATCC 6258 of 2.1 to 4 µg/mL (≈ 3.92 to 7.47 µM).
